This passage reports IC50 results from PubChem BioAssay AID743095 (The Scripps Research Institute Molecular Screening Center, 2013).

pIC50: −log10 of the molar value. Activity calls are given as the source filed them. How the calls were made is not given here. Bounds are passed on as bounds.

This experiment has as its target Galanin receptor type 3 (Homo sapiens) (UniProt O60755). Briefly: GalR3 antagonist potency curves, late-stage follow-up, cell-based, fluorescence, dose response (AID 743095). The conditions noted are these: GalR3 cell line, fluorescence antagonist assay.
One may read the pIC50 as the IC50 on a negative log10 scale, so that one unit is a factor of ten. Regarding `Cc1nn(C)c(Nc2ccc(Br)cc2)c1Br`, the negative logarithm of the IC50 (pIC50) is 5.38.

Consider `NC(=O)c1c(-c2ccc(Cl)cc2Cl)csc1NC(=O)Cc1ccccc1`, for which the negative logarithm of the IC50 (pIC50) is 5.63.

Take `Cc1nc2ccccc2n1Cc1ccc(Cl)cc1`: the pIC50 was 5.90.

For orientation: IC50 means the concentration at which inhibition is half-maximal. As to `N#Cc1cc(-c2ccccc2)oc1NC(=O)c1ccco1`, the IC50 entry was “inactive”.

As to `COc1cccc2[nH]c3c(N4CCC(C)CC4)ncnc3c12`, the pIC50 was 5.56.

For the molecule `Cn1nc(C(C)(C)C)cc1C(=O)NCc1ccc(N2CCCC2=O)cc1`, the pIC50 was 5.28.

As to `O=C(COc1ccc(C(=O)c2ccccc2)cc1)Nc1cccnc1`, the pIC50 was 5.91.

In the case of `Cc1[nH]c(=O)c(C#N)cc1-c1ccccc1`, the IC50 result was “inactive”.

With `CCCOc1ccc(CSc2nc3ccccc3[nH]2)cc1`, the pIC50 was 5.92.

As to `CCOc1nc(C#N)nc(N2CCCCC2)n1`, the pIC50 is 5.55.

Consider `Cc1nn(C)c(Cl)c1NC(=O)OCc1ccc(Cl)cc1Cl`, for which the pIC50 is 5.38.

As to `Nc1nonc1-n1nnc(C(=O)N/N=C/c2cc(Br)ccc2O)c1CSC1=NCCS1`, the pIC50 is 5.20.

With `CNc1ccccc1C(C)(C)c1cc(-c2ccc(F)cc2)no1`, the pIC50 was 5.42.

As to `CCN(CC)S(=O)(=O)c1cc(NC(=O)CNc2cccc(S(=O)(=O)N3CCOCC3)c2)ccc1C`, the pIC50 was 5.45.

On to `CC1(C)CC2CC(C)(CN2S(=O)(=O)c2ccc(C(=O)Nc3cccc(S(=O)(=O)N4CCOCC4)c3)cc2)C1` (configuration not stated), for which the negative logarithm of the IC50 (pIC50) was 5.68.

With `O=S(=O)(NCc1ccncc1)c1ccc(Br)s1`, the pIC50 was 5.75.

Turning to `CCCOC(=O)c1ccc(OCC(O)Cn2c(C)nc3ccccc32)cc1` (configuration not stated), the negative logarithm of the IC50 (pIC50) is 5.49.

`CCCCc1ccc(NC(=O)c2ccc(N(C)S(C)(=O)=O)cc2)cc1`: the pIC50 is 6.16.

With `Fc1ccc(NC(=S)N2CCCN(c3ccc(C(F)(F)F)cn3)CC2)c(F)c1`, the negative-log IC50 (pIC50) is 6.40.

Consider `O=C(CSc1nnc(Cn2nnc3ccccc32)o1)N(Cc1ccc(F)cc1)c1ccccc1`, for which the negative-log IC50 (pIC50) is 5.91.

With `Cc1ccccc1Cn1c(C)nc2ccccc21`, the pIC50 is 5.47.

Consider `O=C(Nc1nc(-c2ccc(Cl)cc2Cl)cs1)c1ccc(OCC2CCCO2)cc1` (configuration not stated), for which the pIC50 was 5.96.

Take `S=C(NCCc1ccccc1)Nc1cccc2cnccc12`: the negative logarithm of the IC50 (pIC50) was 5.58.

Turning to `CC1CC(=O)NN=C1c1ccc(N)c([N+](=O)[O-])c1` (configuration not stated), the negative-log IC50 (pIC50) is 6.22.

Consider `CCOC(=O)c1[nH]c2ccc(OC)cc2c1NS(=O)(=O)c1ccc(Cl)s1`, for which the negative-log IC50 (pIC50) is 5.50.

With `COc1ccc(C(=O)CSc2nnc(Cn3cnc4ccccc43)o2)cc1`, the negative logarithm of the IC50 (pIC50) was 5.50.

Consider `CSc1ccc(C(=O)C2CCCN(C(=O)CCc3c(C)nn(C)c3C)C2)cc1` (configuration not stated), for which the pIC50 was 5.38.

Consider `Cc1ccccc1-c1cc(C(=O)Nc2sc(C(=O)OC(C)C)c(C)c2C#N)c2ccccc2n1`, for which the pIC50 is 5.95.

For the molecule `Cc1cc(C)nc(SCC(=O)Nc2ccnc3ccccc23)n1`, the pIC50 is 5.93.

As to `O=C(Cc1ccc(Cl)cc1Cl)Nc1ccncc1Cl`, the pIC50 was 5.41.

For `Cc1cc(C(=O)CSc2nc(N)cc(=O)[nH]2)c(C)n1-c1ccc(OC(F)F)cc1`, the pIC50 is 5.87.

As to `O=C(CSc1nnnn1C1CC2CCC1C2)Nc1ccnc2ccccc12` (configuration not stated), the negative-log IC50 (pIC50) was 6.85.

On to `COc1ccc(CCNc2ncnc3sccc23)cc1OC`, for which the pIC50 was 6.36.

For `NC(=O)c1nnn(Cc2cc(Cl)c(C(=O)c3ccc(Cl)cc3)c(Cl)c2)c1N`, the negative-log IC50 (pIC50) is 5.46.

Consider `COc1ccc(NS(=O)(=O)c2ccc(NC(=O)c3ccc(CN4CCOCC4)cc3)cc2)cc1`, for which the pIC50 was 5.52.

For `COc1ccc(OC)c(CCNC(=O)Cn2nc(C)c3c(C)n(-c4ccc(C)cc4)nc3c2=O)c1`, the pIC50 is 5.42.

Regarding `CCCCCn1c(=O)[nH]c2cc(C(=O)N3CCN(Cc4ccc5c(c4)OCO5)CC3)ccc2c1=O`, the pIC50 was 6.84.

For the molecule `Cc1ccc(Oc2ccc(OCC(=O)Nc3ccncc3)cc2)cc1`, the negative logarithm of the IC50 (pIC50) was 6.37.

As for `COc1ccc(CN(C)c2ccc(S(=O)(=O)N3CCN(C)CC3)cc2[N+](=O)[O-])cc1OC`, the pIC50 was 6.35.

Take `Cc1nn(C)c(C)c1CN(C)S(=O)(=O)c1ccc2ccccc2c1`: the pIC50 was 5.91.

As for `CC(C)(C)c1ccc(C(=O)Nc2ccc(Oc3cccnc3)nc2)cc1`, the pIC50 was 5.94.

Regarding `Cc1cccc(Cl)c1NC(=O)N1CCCN(c2nc3ccc(Cl)cc3s2)CC1`, the negative logarithm of the IC50 (pIC50) is 5.71.

For the molecule `CCOc1cc(S(=O)(=O)NCc2ccncc2)ccc1Cl`, the pIC50 is 6.57.

As for `CC(C)(C)NC(=O)COC(=O)c1snc(C(=O)NC2CCCCC2)c1N`, the negative logarithm of the IC50 (pIC50) was 5.50.

For the molecule `CCOC(=O)Cc1csc(NC(=O)c2cc(=O)c3ccccc3o2)n1`, the pIC50 is 5.24.

For the molecule `COc1ccc(CN2CCC(C(=O)Nc3ccc(Oc4ccccc4)nc3)CC2)cc1F`, the pIC50 is 5.16.

For `Cc1cc(CSc2ccccc2)ccc1NC(=O)c1ccc(CN2CCOCC2)cc1`, the pIC50 was 6.28.

`Cc1oc(-c2ccc(Cl)cc2)nc1CSCC(=O)NC1CCN(Cc2ccccc2)CC1`: the negative-log IC50 (pIC50) was 5.88.

On to `Nc1cc(-c2ccc(Br)cc2)nn1Cc1ccccc1`, for which the pIC50 is 5.44.

For the molecule `COc1ccc(-n2c(C)cc(C(=O)COC(=O)Cn3cnc4ccccc43)c2C)cc1`, the IC50 was > 29900 nM (inactive).

In the case of `CC(=O)c1ccc(N2CCN(C(=S)Nc3ccc(Oc4ccccc4)cc3)CC2)cc1`, the negative-log IC50 (pIC50) is 5.91.

As for `COc1cc(CSc2nnnn2-c2ccc(C)cc2)cc(OC)c1OC`, the pIC50 is 5.46.

With `CC(C)(C)c1ccc(-n2ncc3c2CCCC3NC(=O)C2(C(N)=O)CC2)cc1` (configuration not stated), the pIC50 was 5.70.

Turning to `CC(C)(C)CN1CCN(Cc2nc(-c3ccc(F)cc3)cs2)CC1CCO` (configuration not stated), the pIC50 is 5.49.

On to `CC(=O)c1c(C)[nH]c(C(=O)COc2cc(C)ccc2C(C)C)c1C`, for which the negative logarithm of the IC50 (pIC50) is 5.45.

Regarding `COc1cc2c(cc1OC)[C@@H]1C(=O)c3ccc4c(c3O[C@@H]1CO2)C[C@H](C(C)C)O4`, the pIC50 is 7.91.

With `CC(=O)c1cn(CC(=O)NCCc2c[nH]c3ccccc23)c2ccccc12`, the pIC50 was 5.38.
